Measured values: patent US9328369B2, “Process for production of useful substance, and surfactant for use in the process” (priority 2009, dated 2016)

Test system: Escherichia coli (α)
Assay: Screening of secretion efficiency, alkaline phosphatase expressing strain
Type: cell-based
Conditions: surfactant 1 wt %; 37° C., 1 hour; ELISA, anti-His-tag antibody
Text: An alkaline phosphatase (phoA) gene of an Escherichia coli strain W3110 was amplified by the PCR method using primers 1 and 2 (Table 4). After being treated with restriction enzymes NdeI and BamHI, a PCR fragment was bound with an NdeI restriction enzyme site and with a BamHI restriction enzyme site of a pET-22b plasmid (product of Novagen). Then, the plasmid was transformed into an AG1 (DE3) Escherichia coli strain formed by transforming an Escherichia coli strain AG1 (product of TOYOBO Co., LTD.) with use of a λDE3 Lysogenization Kit (product of Novagen). In this manner, an alkaline phosphatase expressing strain (a) was formed.
A pdxA gene of an Escherichia coli strain W3110 was amplified by the PCR method using primers 5 and 6 (Table 4). After being treated with restriction enzymes NdeI and BamHI, a PCR fragment was bound to an NdeI restriction enzyme site and a BamHI restriction enzyme site of a pET-22b plasmid (product of Novagen). Then, the plasmid was transformed into an AG1 (DE3) Escherichia coli strain to form a PdxA expressing strain (γ).
In this manner, culture solutions were prepared.
(2) The strains were collected using a centrifuge (4,000 G, 4° C., 15 minutes). Each of the collected Escherichia coli strains was resuspended in 1 mL of a TB culture solution (product of Difco) and chloramphenicol (30 mg/L) and IPTG (100 μM) were added thereto. Shake culture at 37° C. for 3 hours induced expression of phoA, torA, and pdxA.
(3) Subsequently, harvesting using a centrifuge was carried out again (4,000 G, 4° C., 15 minutes). Each of the collected Escherichia coli strains was resuspended in 2.5 mL of a Tris-NaCl buffer solution (50 mM Tris (pH 7.5), 100 mM NaCl). The resulting solution was divided into 25-μL portions at a time to be mixed with 25 μL of a Tris-NaCl buffer solution.
(4) Then, the solution was allowed to stand at 37° C. for 1 hour. The supernatant solution was collected and diluted in a Tris-NaCl buffer solution to a proper concentration. Here, the quantification of the recombinant protein in the resulting solution was carried out by ELISA assay with use of an anti-His-tag antibody. The sample prior to the centrifugation in the process (3) was treated with ultrasonic waves (200 W, 10 minutes) and the quantification of the recombinant protein therein was similarly carried out by ELISA assay with use of an anti-His-tag antibody. The ratio of lysed bacteria was obtained with use of Escherichia coli (γ), and the secretion efficiencies of the recombinant proteins of Escherichia coli (α) and (β) were calculated by using the following formula. […] Secretion efficiency (%)=100×{(X/Y)−Z}.
In the formula, “X” represents the amount of the recombinant protein in the culture solution after removal of bacterial cells by centrifugation in the case of using Escherichia coli (α) or (β).
“Y” represents the amount of the whole recombinant protein in the culture solution in the case of using Escherichia coli (α) or (β).
“Z” represents the ratio of lysed bacteria obtained with use of Escherichia coli (γ), which is determined by the following formula: Z=Z1/Z2.
In the formula, “Z1” represents the amount of the recombinant protein in the culture solution which remains after removal of bacterial cells by centrifugation in the case of using Escherichia coli (γ).
“Z2” represents the amount of the whole recombinant protein in the culture solution in the case of using Escherichia coli (γ).
Escherichia coli (α) and (β) were each cultured in the same manner as in the above case except that polyoxyethylene (3 mol) tridecyl ether sodium acetate as the surfactant (A) was added right after the resuspension of the Escherichia coli in the buffer solution in the process (3) of A-0, in an amount of 1% by weight on the basis of the weight of the suspension of the bacterium. The secretion efficiency was calculated according to the above-mentioned definition.

With “Polyoxyethylene(EO 20 mol)sorbitan monostearate [A-72]” the “Secretion efficiency (%) Escherichia coli (α)” value was 0.0%.

For “EO 3 mol adduct of higher alcohol (C11 to C 15) [A-10]”, the “Secretion efficiency (%) Escherichia coli (α)” value was 56.9%.

With “Polyoxyethylene glyceryl triisostearate [A-32]” the “Secretion efficiency (%) Escherichia coli (α)” value was 5.9%.

With “Isostearylalcohol polyoxyethylene (5 mol) sodium phosphate [A-31]” the “Secretion efficiency (%) Escherichia coli (α)” value was 6.2%.

With “Triethanol amine alkyl (C12, C13) sulfate [A-18]” the “Secretion efficiency (%) Escherichia coli (α)” value was 30.7%.

With “Oleic acid 4.5 mol ester of sorbitol EO 40 mol adduct [A-63]” the “Secretion efficiency (%) Escherichia coli (α)” value was 0.7%.

“Polyoxyethylene (20 mol) sorbitan monolaurate [A-56]” was tested, and the “Secretion efficiency (%) Escherichia coli (α)” value was 1.6%.

In the case of “Polyoxyethylene (Mw = 400) oleate monoester [A-58]”, the “Secretion efficiency (%) Escherichia coli (α)” value is reported as 1.3%.

In the case of “EO 25 mol adduct of cured castor oil [A-44]”, the “Secretion efficiency (%) Escherichia coli (α)” value is reported as 3.0%.

For “Polyethylene glycol monoisostearate [A-29]”, the “Secretion efficiency (%) Escherichia coli (α)” value was 7.6%.

With “Polyoxyethylene(Mw = 1000)dioleate [A-66]” the “Secretion efficiency (%) Escherichia coli (α)” value was 0.3%.

“1,2-dodecandiol monooxyethylene adduct [A-4]” was tested, and the “Secretion efficiency (%) Escherichia coli (α)” value was 90.7%.

In the case of Palm oil fatty acid sorbitan [A-54], the “Secretion efficiency (%) Escherichia coli (α)” value is reported as 1.7%.

For “Lanolin fatty acid aminopropyl ethylene dimethyl ammonium ethyl sulfate [A-28]”, the “Secretion efficiency (%) Escherichia coli (α)” value was 9.2%.

With `C[C@H](CCC(=O)[O-])[C@H]1CC[C@H]2[C@@H]3[C@H](O)C[C@@H]4C[C@H](O)CC[C@]4(C)[C@H]3C[C@H](O)[C@]12C.[Na+]` [A-82, sodium cholate] the “Secretion efficiency (%) Escherichia coli (α)” value was 0.0%.

`CCCCCCCCCCCCCCCCCC[N+](C)(C)CCCCCCCCCCCCCCCCCC.[Cl-]` [A-50, Distearyl dimethyl ammonium chloride] was tested, and the “Secretion efficiency (%) Escherichia coli (α)” value was 2.3%.

In the case of “Stearylamine polyoxyethylene (15 mol) adduct [A-26]”, the “Secretion efficiency (%) Escherichia coli (α)” value is reported as 11.0%.

With “2-alkyl-N-carboxymethyl-N-hydroxyethyl imidazolinium betaine [A-23]” the “Secretion efficiency (%) Escherichia coli (α)” value was 20.2%.

With Behenylamide propyldimethylamine [A-47] the “Secretion efficiency (%) Escherichia coli (α)” value was 2.8%.

For “Palm oil fatty acid diethanol amide [A-2]”, the “Secretion efficiency (%) Escherichia coli (α)” value was 97.5%.

“Ester thiodipropionate of polyoxyethylene (3 mol) alkyl (C12, C15) ether [A-25]” was tested, and the “Secretion efficiency (%) Escherichia coli (α)” value was 11.8%.

In the case of “EO 10 mol adduct of oleyl alcohol [A-59]”, the “Secretion efficiency (%) Escherichia coli (α)” value is reported as 1.1%.

In the case of “Sodium dodecyl diphenyl ether disulfonate [A-8]”, the “Secretion efficiency (%) Escherichia coli (α)” value is reported as 79.1%.

With “Polyoxyethylene (Mw = 200) oleate monoester [A-35]” the “Secretion efficiency (%) Escherichia coli (α)” value was 5.3%.

“Polyoxyethylene(10 mol)cetyl ether [A-65]” was tested, and the “Secretion efficiency (%) Escherichia coli (α)” value was 0.5%.

For `CCCCCCCCCCCCCCCCCC[N+](C)(C)C.[Cl-]` [A-15, Stearyl trimethyl ammonium chloride], the “Secretion efficiency (%) Escherichia coli (α)” value was 37.3%.

“Polyoxyethylene (3 mol) lauryl ether acetate [A-24]” was tested, and the “Secretion efficiency (%) Escherichia coli (α)” value was 16.1%.

In the case of “Polyoxyethylene(Mw = 600)oleate monoester [A-67]”, the “Secretion efficiency (%) Escherichia coli (α)” value is reported as 0.3%.

“PO 20 mol and EO 9 mol adduct of ethylhexanol [A-51]” was tested, and the “Secretion efficiency (%) Escherichia coli (α)” value was 2.3%.

For “EO 24 mol adduct trilaurate of trimethylolpropane [A-64]”, the “Secretion efficiency (%) Escherichia coli (α)” value was 0.5%.

In the case of “Sodium polyoxyethylene (2.5 mol) laurylether sulfate [A-11]”, the “Secretion efficiency (%) Escherichia coli (α)” value is reported as 53.2%.

In the case of “Isostearyl alcohol polyoxyethylene (5 mol) adduct sodium ether carboxylate [A-52]”, the “Secretion efficiency (%) Escherichia coli (α)” value is reported as 2.2%.

In the case of Sorbitan trioleate [A-49], the “Secretion efficiency (%) Escherichia coli (α)” value is reported as 2.4%.

“polyoxyethylene-p-isooctyl phenol [A-16]” was tested, and the “Secretion efficiency (%) Escherichia coli (α)” value was 36.7%.

In the case of “EO 20 mol adduct of sorbitan trioleate [A-41]”, the “Secretion efficiency (%) Escherichia coli (α)” value is reported as 4.6%.

With “Polyethylene glycol monoisostearate [A-40]” the “Secretion efficiency (%) Escherichia coli (α)” value was 4.9%.

With EO 6 mol adduct of decyl alcohol [A-12] the “Secretion efficiency (%) Escherichia coli (α)” value was 53.1%.

`CCCCCCCCCC[N+](C)(C)CCCCCCCCCC.[Cl-]` [A-20, Didecyl dimethylammonium chloride] was tested, and the “Secretion efficiency (%) Escherichia coli (α)” value was 28.7%.

“Didecyl dimethyl ammonium adipate [A-42]” was tested, and the “Secretion efficiency (%) Escherichia coli (α)” value was 4.3%.

For “Polyethylene glycol diisostearate [A-22]”, the “Secretion efficiency (%) Escherichia coli (α)” value was 26.2%.

With Sorbitan monooleate [A-43] the “Secretion efficiency (%) Escherichia coli (α)” value was 3.5%.

For “Lauryl diphenyl ether sodium disulfonate [A-74]”, the “Secretion efficiency (%) Escherichia coli (α)” value was 0.0%.

In the case of “Polyethylene glycol diisostearate [A-38]”, the “Secretion efficiency (%) Escherichia coli (α)” value is reported as 5.1%.

“Polyoxyethylene (Mw = 300) oleate diester [A-57]” was tested, and the “Secretion efficiency (%) Escherichia coli (α)” value was 1.5%.

For `CCCCCCCCCCCCOS(=O)(=O)[O-].[Na+]` [A-69, Sodium lauryl sulfate], the “Secretion efficiency (%) Escherichia coli (α)” value was 0.0%.

In the case of Polyoxyethylene isostearyl ether [A-34], the “Secretion efficiency (%) Escherichia coli (α)” value is reported as 5.3%.

For “EO 10 mol adduct of cured castor oil [A-55]”, the “Secretion efficiency (%) Escherichia coli (α)” value was 1.7%.

`CCCCCCCCCC[N+](C)(C)CCCCCCCCCC.[Cl-]` [A-48, Didecyl dimethyl ammonium chloride] was tested, and the “Secretion efficiency (%) Escherichia coli (α)” value was 2.7%.

In the case of “Polyoxyethylene (Mw = 190) stearic acid diester [A-33]”, the “Secretion efficiency (%) Escherichia coli (α)” value is reported as 5.5%.

With “Polyoxyethylene (20 mol) sorbitan monooleate [A-37]” the “Secretion efficiency (%) Escherichia coli (α)” value was 5.2%.
